Measurements: patent US6797699B1, “Neuroprotective agents” (University of Southampton, priority 1997, dated 2004)
Marks after values point to notes of the source that are not given here.

Assays:
[1] = test system: CA1 pyramidal cell layer of organotypic hippocampal slice cultures; assay: Hypoxic neuronal damage in organotypic hippocampal slice cultures (propidium iodide fluorescence); format: cell-based, Wistar rat; settings: for neuroprotective effect (in words): 300 μM added 30 minutes prior to hypoxia, during hypoxia and the 24 hour recovery period
Experimental: Hypoxic neuronal damage was studied using organotypic hippocampal slice cultures [Pringle A. K. et al. (1996 Stroke 27 2124-2130)].
Cultures were prepared according to the method of Stoppini et al (1991 J. Neurosci. Meth. 37 173-182) from 8-10 day old Wistar rat pups (Bioresources Unit, University of Southampton). Cultures were maintained in vitro for 14 days (37° C., 5% CO2) during which the medium (50% minimum essential medium (MEM), 25% Hank's balanced salt solution (HBSS), 25% heat-inactivated horse serum, supplemented with 1 mM glutamine, 5 mg/ml glucose and 1.5% fungizone) was changed every 3 days. Hypoxia was induced by replacing culture medium with serum-free (SF) medium (75% MEM, 25% HBSS, 1 mM glutamine, 5 mg/ml glucose, 1.5% fungizone) saturated with 95% N2/5% CO2 (and thus oxygen-free), and placing cultures in an air-tight chamber in which the atmosphere was also saturated with N2/CO2. After 180 minutes hypoxia, cultures were replated in normoxic SF medium and replaced in the incubator for 24 hours. Compounds were added to cultures either pre-, during and post-hypoxia (herein abbreviated to “pdp”) or just in the post-hypoxic recovery period (“post”) [Johnson, T. D. (1996 Trends Pharmacol. Sci. 22-27)]. Cell damage was evaluated using the fluorescent exclusion dye propidium iodide (PI, 5 μg/ml) which is normally excluded from healthy cells, but enters cells with damaged plasma membranes and becomes highly fluorescent when bound to DNA. Neuronal cell damage was quantified using the “NIH Image 1.55” software (written by Wayne Rasband at the U.S. National Institutes for Health and available from the internet by anonymous ftp from zippy.nimh.nih.gov). Briefly, the area of the CA1, CA3 and dentate gyrus (DG) cell layers was measured from a transmission image. 24 hours after the commencement of hypoxia, a fluorescence image was captured using a standard Leica inverted fluorescence microscope fitted with a rhodamine filter set. The area of PI fluorescence above background in the neuronal cell layers was determined using the density slice function of Image. Cellular damage is expressed as the percentage area of the cell body layers in which PI fluorescence was detectable. After imaging, cultures were fixed overnight in 4% paraformaldehyde and stained with thionin.
Data are expressed as the mean±sem. Data from the non-drug groups was pooled before analysis. Statistical significance was determined using one-way analysis of variance (ANOVA) followed by post-hoc non-paired Student's t-tests. As only cells within the CA1 region were susceptible to hypoxia-induced damage, all of the pharmacological data was calculated for this region alone.
Table 1 represents the quantification of the percentage area of the CA1 pyramidal cell layer in which PI fluorescence was detectable 24 hours after 3 hours of hypoxia (% Damage CA1). Data from all of the cultures exposed to hypoxia alone were pooled (control hypoxia). The percentage neuroprotection was calculated as the (((% damage control hypoxia-% damage drug treated)/% damage control hypoxia) 100). Data are expressed as the mean±sem, n=number of cultures, *p<0.05, **<0.01, ***p<0.001 vs hypoxia control.

[2] = test system: Adult male Wistar rats; assay: Global forebrain ischaemia in vivo; parameters: species or system Wistar rat; settings: 1 mg/kg 15 minutes prior to 15 minutes global forebrain ischaemia; assessed 24 hours after; vs vehicle
Experimental: Animals were anaesthetised as described above, and a thermistor inserted into the left temporal muscle for recording of body temperature. A dorsal midline skin incision was made in the neck and using microsurgery, the vertebral arteries were identified and occluded using a monopolar electrode at the level of C 1. The incision was closed, animals allowed to recover from anaesthesia and returned to their cages for 24 hours. After this time, animals were re-anaesthetised and the common carotid arteries (CCAs) exposed. Animals were divided into two groups. Group 1 received 0.25-0.3 ml of a 1 mg/ml solution of L-ArgSp (final dose 1 mg/kg) while group 2 received 0.25-0.3 ml of sterile distilled water. Samples were prepared independently and randomised prior to injection. Animals were injected 15 minutes prior to occlusion of the CCAs with microvascular clips for 15 minutes. After this time, the skin was closed, and animals allowed to recover. After 24 hours animals were terminally anaesthetised and transcardially perfused with 1% paraformaldehyde and the brains removed and processed for histology. A blinded observer determined the number of live and dead neurones in the CA1, CA3 fields of the pyramidal cell layer, and the dentate gyrus granule cell layer from haematoxylin and eosin stained coronal sections.

[3] = test system: anaesthetised male Wistar rats; assay: Blood flow studies (mean arterial blood pressure after intravenous injection); format: in vivo, Wistar rat; settings: for MABP (mmHg): pre-injection 79.9 ± 3.9, four observations
Experimental: Adult male Wistar rats (250-300 g) were initially anesthetized with 4% halothane and subsequently anaesthesia was maintained with 1.5% halothane mixed in […] in O2. The femoral artery was cannulated for continuous blood pressure recording. The femoral vein was also cannulated to allow injection of the compound. Animals were allowed 15-30 minutes to stabilise and were then injected with 0.25-0.3 ml of a 1 mg/ml solution of L-ArgSp. Following injection of the compound, rats were continuously monitored for 60 minutes. After this time, anaesthesia was terminated and rats allowed to waken. In these studies, measurement was taken of the mean arterial blood pressure (MABP) induced following an intravenous injection of 1 mg/kg L-ArgSp into the femoral vein of anaesthetised male Wistar rats. MABP was calculated immediately prior to injection of L-ArgSp (pre-injection) and 30 seconds and 10 minutes post-injection. Data are presented as mean […] of four observations.

[4] = test system: CA1 pyramidal cell layer of organotypic hippocampal slice cultures; assay: Hypoxic neuronal damage in organotypic hippocampal slice cultures (propidium iodide fluorescence); format: cell-based, Wistar rat; settings: 300 μM for 24 hours

## N=C(N)NCCCC(N)C(=O)NCCCNCCCCN [Compound A, N′-L-Arginylspermidine]
[1]
  neuroprotective effect (in words): complete protection
[1]; listed as L-ArgSp
  neuroprotective effect (in words): completely neuroprotective
[1]; 300 μM added post-hypoxia
  neuroprotective effect / reduction of PI fluorescence in CA1 (in words): significant protective effect
[1]; 300 μM added post-hypoxia, listed as L-ArgSp
  neuroprotective effect / reduction of PI fluorescence in CA1 (in words): significant neuroprotective effect
[1]; 0.3-300 μM added immediately post-hypoxia
  concentration dependence of the neuroprotective effect: concentration dependent
[1]; Rattus norvegicus, added immediately post-hypoxia, 0.3-300 μM, read-out: EC50 of the neuroprotective effect
  EC50: 3 to 30 µM
[1]; Table 1, 300 μM added post-hypoxia, 3 h hypoxia, PI at 24 h, control hypoxia 35.6 ± 1.43, mean±sem
  % Damage CA1: 9.9 ± 3.5*** %
[1]; Table 1, 300 μM added post-hypoxia, vs control hypoxia
  % Protection: > 70%
[1]; Table 1, 300 μM added post-hypoxia, vs control hypoxia, listed as L-ArgSp
  % Protection: 72.2%
[1]; Table 1, 300 μM added pre-, during and post-hypoxia (pre), 3 h hypoxia, PI at 24 h, control hypoxia 35.6 ± 1.43, mean±sem, listed as L-ArgSp
  % Damage CA1: 0.2±0.02%
[1]; Table 1, 300 μM added pre-, during and post-hypoxia (pre), vs control hypoxia
  % Protection: 99.4%
[1]; Table 3, 0.3 μM pdp, fresh batch
  % Protection: 15.5%
[1]; Table 3, 0.3 μM pdp, fresh batch, control hypoxia 23.9 ± 2.7
  % Damage CA1: 20.2 ± 8.4%
[1]; Table 3, 1 μM pdp, fresh batch
  % Protection: 15.9%
[1]; Table 3, 1 μM pdp, fresh batch, control hypoxia 23.9 ± 2.7
  % Damage CA1: 20.1 ± 8.2%
[1]; Table 3, 3 μM pdp, fresh batch
  % Protection: 72.8%
[1]; Table 3, 3 μM pdp, fresh batch, control hypoxia 23.9 ± 2.7
  % Damage CA1: 6.5 ± 3.0** %
[1]; Table 3, 10 μM pdp, fresh batch
  % Protection: 63.2%
[1]; Table 3, 10 μM pdp, fresh batch, control hypoxia 23.9 ± 2.7
  % Damage CA1: 8.8 ± 3.9* %
[1]; Table 3, 30 μM pdp, fresh batch
  % Protection: 65.9%
[1]; Table 3, 30 μM pdp, fresh batch, control hypoxia 23.9 ± 2.7
  % Damage CA1: 7.3 ± 4.2* %
[1]; Table 3, 300 μM pdp, fresh batch
  % Protection: 66.5%
[1]; Table 3, 300 μM pdp, fresh batch, control hypoxia 23.9 ± 2.7
  % Damage CA1: 8.0 ± 3.0** %
[1]; Table 7, 300 μM post
  % Protection: 56.3%
[1]; Table 7, 300 μM post, hypoxia control 27.7 ± 3.1
  % Damage CA1: 12.1 ± 3.5** %
[2]
  neuronal loss in CA1, CA3 and dentate gyrus (in words): neuronal loss was significantly attenuated
[3]; 1 mg/kg intravenous
  effect on body temperature: No effect
  effect on heart rate: No effect
  ill effects on the animals following wakening: no ill effects
  reduction in MABP (significance, in words): not statistically significant
[3]; 1 mg/kg intravenous, 30 secs post-injection vs pre-injection
  % Charge: −9.6%
[3]; 1 mg/kg intravenous, 30 secs post-injection
  MABP (mmHg): 72.2 ± 5.1 mmHg
[3]; 1 mg/kg intravenous, 10 minutes post-injection vs pre-injection
  % Charge: −0.9%
[3]; 1 mg/kg intravenous, 10 minutes post-injection
  MABP (mmHg): 79.2 ± 6.5 mmHg
[3]; 1 mg/kg intravenous, 60 minutes after injection
  blood pressure recordings (in words): identical to those 10 minutes post-drug administration
[3]; 1 mg/kg, five rats recovered for three days
  long-term behavioural deficits: no long-term behavioural deficits have been observed
[3]; rat, in vivo
  effect on blood flow compared with FTX (in words): less adverse effect on blood flow than FTX
[4]
  PI fluorescence above baseline after incubation without hypoxia: no increase in PI fluorescence above baseline was observed
